PMC11881035, “^68Ga-Labeled Glycopeptides as Effective Tools for Liver Function Imaging” (Molecular Pharmaceutics, 2025)
Read-outs that look alike come from different tables or passages of the source. Where a SMILES comes first, the peptide text is derived from it. The star is where a group is joined. X1 = O=C(CCCCc1cn([C@@H]2O[C@H](CO)[C@H](O)[C@H](O)[C@H]2O)nn1)*; NODAGA = O=C(O)CN1CCN(CC(=O)O)CCN(C(CCC(=O)*)C(=O)O)CC1; GABA = NCCCC(=O)O

What was measured:
log D determination = assay type: physicochemical
Method: (§1) The ^68Ge/^68Ga generator, devices for analytical HPLC, semipreparative HPLC, mass spectrometry, radio-thin layer chromatography, gamma counter and animal models for biodistribution and imaging studies including the image reconstruction procedures were the same as described before.[22] Stability assays in PBS and human blood serum, protein binding as well as determination of log D values followed established protocols.[25] Binding affinities (IC50) of selected ligands were determined in an isolated receptor-based assay according to a previously published procedure with minor modifications.[22] Dilutions of nonradioactive complexes were made with PBS + 0.1% BSA (10^–5–10^–12 M). Preparation of [^125I]I-Asialoorosomucoid which serves as the radioactive standard ligand has been published recently.[21]

[1] = protein binding in human serum; assay type: in vitro ADME; conditions: human, serum
Method: as §1

[2] = biodistribution in healthy BALB/c mice; conditions: mouse, in vivo
Method: as §1
(§2) Animal experiments were performed in accordance with the Austrian animal experiments law (BGBl. I Nr. 114/2012) and the institution’s animal welfare standards as approved by the Austrian Federal Ministry of Education, Science and Research (BMBWF, 2022–0.311.708). Imaging experiments were conducted at Werner Siemens Imaging Center (Tübingen, Germany) according to the German animal welfare act as approved by the local authorities (R5/19 G, R09/21 G).
(§3) Figure 2 Biodistribution data (% ID/g) of ^68Ga-labeled NODAGA-GalNAc-NonaLysan, NODAGA-NonaLysan, NODAGA-HexaLysan, and NODAGA-TriLysan in healthy BALB/c mice at 10, 30, and 60 min p.i. (100 pmol, 1 MBq).

[3] = test system: healthy female BALB/c mice; assay: biodistribution in healthy BALB/c mice; conditions: mouse, in vivo
Method: as §1, §2, §3

[4] = complex stability in human blood serum; assay type: in vitro ADME
Method: as §1

complex stability in PBS = assay type: physicochemical
Method: as §1

[5] = 2 min, read-out: protein binding (%) (converted)
[6] = 30 min, read-out: protein binding (%) (converted)

NC(=O)CNC(=O)CNC(=O)[C@H](CCCCNC(=O)CCCCc1cn([C@@H]2O[C@H](CO)[C@H](O)[C@H](O)[C@H]2O)nn1)NC(=O)CNC(=O)CNC(=O)[C@H](CCCCNC(=O)CCCCc1cn([C@@H]2O[C@H](CO)[C@H](O)[C@H](O)[C@H]2O)nn1)NC(=O)CNC(=O)CNC(=O)[C@H](CCCCNC(=O)CCCCc1cn([C@@H]2O[C@H](CO)[C@H](O)[C@H](O)[C@H]2O)nn1)NC(=O)CNC(=O)CNC(=O)[C@H](CCCCNC(=O)CCCCc1cn([C@@H]2O[C@H](CO)[C@H](O)[C@H](O)[C@H]2O)nn1)NC(=O)CNC(=O)CNC(=O)[C@H](CCCCNC(=O)CCCCc1cn([C@@H]2O[C@H](CO)[C@H](O)[C@H](O)[C@H]2O)nn1)NC(=O)CNC(=O)CNC(=O)[C@H](CCCCNC(=O)CCCCc1cn([C@@H]2O[C@H](CO)[C@H](O)[C@H](O)[C@H]2O)nn1)NC(=O)CCCNC(=O)CCC(C(=O)O)N1CCN(CC(=O)O)CCN(CC(=O)O)CC1 (stereo partly drawn) [[^68Ga]Ga-NODAGA-HexaLysan, metal not drawn] ({NODAGA-GABA}-K(X1)GGK(X1)GGK(X1)GGK(X1)GGK(X1)GGK(X1)GG-NH2) gave a logD (log D determination) of -4.34, a fraction unbound [1, 5] of 0.824 and a fraction unbound [1, 6] of 0.782. For the same compound, the fraction unbound ([1]; protein binding (%)) was 0.785, the tissue uptake at 10 min ([2]; Blood uptake) was 2.1 ± 0.04 %ID/g and the tissue uptake at 0.5 h ([2]; Blood uptake) was 0.6 ± 0.1 %ID/g. The tissue uptake at 1 h ([2]; Blood uptake) was 1.1 ± 0.4 %ID/g, the tissue uptake at 10 min ([2]; Femur uptake) was 0.5 ± 0.1 %ID/g and the tissue uptake at 0.5 h ([2]; Femur uptake) was 0.3 ± 0.03 %ID/g. The tissue uptake at 10 min ([2]; Heart uptake) was 0.9 ± 0.1 %ID/g, the tissue uptake at 0.5 h ([2]; Heart uptake) was 0.4 ± 0.1 %ID/g and the tissue uptake at 1 h ([2]; Heart uptake) was 0.3 ± 0.02 %ID/g. The tissue uptake at 10 min ([2]; Intestine uptake) was 1.2 ± 0.3 %ID/g, the tissue uptake at 0.5 h ([2]; Intestine uptake) was 4 ± 0.3 %ID/g and the tissue uptake at 1 h ([2]; Intestine uptake) was 5.9 ± 1.7 %ID/g. For the same compound, the tissue uptake at 10 min ([2]; Kidneys uptake) was 4.8 ± 0.3 %ID/g, the tissue uptake at 0.5 h ([2]; Kidneys uptake) was 1.9 ± 0.2 %ID/g and the tissue uptake at 1 h ([2]; Kidneys uptake) was 1.3 ± 0.3 %ID/g. It also gave a tissue uptake at 10 min ([2]; Liver uptake) of 54.8 ± 3 %ID/g, a tissue uptake at 0.5 h ([2]; Liver uptake) of 55.5 ± 7.4 %ID/g and a tissue uptake at 1 h ([2]; Liver uptake) of 45.9 ± 11.8 %ID/g. It also gave a tissue uptake at 10 min ([2]; Lung uptake) of 1.6 ± 0.2 %ID/g, a tissue uptake at 0.5 h ([2]; Lung uptake) of 0.8 ± 0.1 %ID/g and a tissue uptake at 1 h ([2]; Lung uptake) of 0.6 ± 0.2 %ID/g. The tissue uptake at 10 min ([2]; Muscle uptake) was 0.9 ± 1.2 %ID/g, the tissue uptake at 0.5 h ([2]; Muscle uptake) was 0.6 ± 0.03 %ID/g and the tissue uptake at 1 h ([2]; Muscle uptake) was 0.4 ± 0.04 %ID/g. For the same compound, the tissue uptake at 10 min ([2]; Pancreas uptake) was 0.9 ± 0.1 %ID/g, the tissue uptake at 0.5 h ([2]; Pancreas uptake) was 0.7 ± 0.1 %ID/g and the tissue uptake at 1 h ([2]; Pancreas uptake) was 0.5 ± 0.1 %ID/g. For the same compound, the tissue uptake at 10 min ([2]; Spleen uptake) was 0.5 ± 0.1 %ID/g, the tissue uptake at 0.5 h ([2]; Spleen uptake) was 0.2 ± 0.1 %ID/g and the tissue uptake at 1 h ([2]; Spleen uptake) was 0.2 ± 0.02 %ID/g. It also gave a tissue uptake at 10 min ([2]; Stomach uptake) of 1.3 ± 0.3 %ID/g, a tissue uptake at 0.5 h ([2]; Stomach uptake) of 1.2 ± 0.3 %ID/g and a tissue uptake at 1 h ([2]; Stomach uptake) of 0.4 ± 0.1 %ID/g. The Liver uptake ([3]; 0.5 h) was 55.7 ± 7.4 % ID/g and the Femur uptake ([3]; 1 h) was 0 % ID/g.

For NC(=O)CNC(=O)CNC(=O)[C@H](CCCCNC(=O)CCCCc1cn([C@@H]2O[C@H](CO)[C@H](O)[C@H](O)[C@H]2O)nn1)NC(=O)CNC(=O)CNC(=O)[C@H](CCCCNC(=O)CCCCc1cn([C@@H]2O[C@H](CO)[C@H](O)[C@H](O)[C@H]2O)nn1)NC(=O)CNC(=O)CNC(=O)[C@H](CCCCNC(=O)CCCCc1cn([C@@H]2O[C@H](CO)[C@H](O)[C@H](O)[C@H]2O)nn1)NC(=O)CCCNC(=O)CCC(C(=O)O)N1CCN(CC(=O)O)CCN(CC(=O)O)CC1 (stereo partly drawn) [[^68Ga]Ga-NODAGA-TriLysan, metal not drawn] ({NODAGA-GABA}-K(X1)GGK(X1)GGK(X1)GG-NH2), the logD (log D determination) was -3.52, the “complex stability in serum (% intact ligand)” value ([4]; 2 min) was 99.9% and the “complex stability in serum (% intact ligand)” value ([4]; 30 min) was 99.9%. The “complex stability in serum (% intact ligand)” value ([4]; 60 min) was 99.9%, the “complex stability in serum (% intact ligand)” value ([4]; 120 min) was 99.9% and the fraction unbound [1, 5] was 0.924. For the same compound, the fraction unbound [1, 6] was 0.945, the fraction unbound ([1]; 60 min, read-out: protein binding (%) (converted)) was 0.908 and the fraction unbound ([1]; 120 min, read-out: protein binding (%) (converted)) was 0.864. For the same compound, the “complex stability in PBS (% intact ligand)” value (complex stability in PBS; 2 min) was 99.7%, the “complex stability in PBS (% intact ligand)” value (complex stability in PBS; 30 min) was 99.8% and the “complex stability in PBS (% intact ligand)” value (complex stability in PBS; 60 min) was 99.8%. The “complex stability in PBS (% intact ligand)” value (complex stability in PBS; 120 min) was 99.8%, the tissue uptake at 10 min ([2]; 10 min p.i., read-out: Blood uptake) was 3.6 ± 0.1 %ID/g and the tissue uptake at 10 min ([2]; 10 min p.i., read-out: Femur uptake) was 0.9 ± 0.3 %ID/g. The tissue uptake at 10 min ([2]; 10 min p.i., read-out: Heart uptake) was 1.4 ± 0.01 %ID/g, the tissue uptake at 10 min ([2]; 10 min p.i., read-out: Intestine uptake) was 1.2 ± 0.3 %ID/g and the tissue uptake at 10 min ([2]; 10 min p.i., read-out: Kidneys uptake) was 7.6 ± 1.4 %ID/g. It also gave a tissue uptake at 10 min ([2]; 10 min p.i., read-out: Liver uptake) of 9.5 ± 1.6 %ID/g, a tissue uptake at 10 min ([2]; 10 min p.i., read-out: Lung uptake) of 2.6 ± 0.2 %ID/g and a tissue uptake at 10 min ([2]; 10 min p.i., read-out: Muscle uptake) of 0.9 ± 0.1 %ID/g. The tissue uptake at 10 min ([2]; 10 min p.i., read-out: Pancreas uptake) was 1 ± 0.04 %ID/g, the tissue uptake at 10 min ([2]; 10 min p.i., read-out: Spleen uptake) was 1 ± 0.01 %ID/g and the tissue uptake at 10 min ([2]; 10 min p.i., read-out: Stomach uptake) was 1.6 ± 0.2 %ID/g. It also gave a tissue uptake at 0.5 h ([2]; 30 min p.i., read-out: Blood uptake) of 1.6 ± 0.2 %ID/g, a tissue uptake at 0.5 h ([2]; 30 min p.i., read-out: Femur uptake) of 0.4 ± 0.02 %ID/g and a tissue uptake at 0.5 h ([2]; 30 min p.i., read-out: Heart uptake) of 0.6 ± 0.04 %ID/g. The tissue uptake at 0.5 h ([2]; 30 min p.i., read-out: Intestine uptake) was 1.1 ± 0.02 %ID/g, the tissue uptake at 0.5 h ([2]; 30 min p.i., read-out: Kidneys uptake) was 5 ± 0.02 %ID/g and the tissue uptake at 0.5 h ([2]; 30 min p.i., read-out: Liver uptake) was 9.4 ± 2 %ID/g. The tissue uptake at 0.5 h ([2]; 30 min p.i., read-out: Lung uptake) was 1.2 ± 0.1 %ID/g, the tissue uptake at 0.5 h ([2]; 30 min p.i., read-out: Muscle uptake) was 0.4 ± 0.04 %ID/g and the tissue uptake at 0.5 h ([2]; 30 min p.i., read-out: Pancreas uptake) was 0.4 %ID/g. It also gave a tissue uptake at 0.5 h ([2]; 30 min p.i., read-out: Spleen uptake) of 0.4 ± 0.02 %ID/g, a tissue uptake at 0.5 h ([2]; 30 min p.i., read-out: Stomach uptake) of 0.9 ± 0.1 %ID/g and a tissue uptake at 1 h ([2]; 60 min p.i., read-out: Blood uptake) of 0.3 ± 0.01 %ID/g. It also gave a tissue uptake at 1 h ([2]; 60 min p.i., read-out: Femur uptake) of 0.1 ± 0.01 %ID/g, a tissue uptake at 1 h ([2]; 60 min p.i., read-out: Heart uptake) of 0.2 ± 0.01 %ID/g and a tissue uptake at 1 h ([2]; 60 min p.i., read-out: Intestine uptake) of 1 ± 0.3 %ID/g. The tissue uptake at 1 h ([2]; 60 min p.i., read-out: Kidneys uptake) was 2 ± 0.3 %ID/g, the tissue uptake at 1 h ([2]; 60 min p.i., read-out: Liver uptake) was 9.2 ± 0.3 %ID/g and the tissue uptake at 1 h ([2]; 60 min p.i., read-out: Lung uptake) was 0.5 ± 0.1 %ID/g. It also gave a tissue uptake at 1 h ([2]; 60 min p.i., read-out: Muscle uptake) of 0.1 %ID/g, a tissue uptake at 1 h ([2]; 60 min p.i., read-out: Pancreas uptake) of 0.2 ± 0.01 %ID/g and a tissue uptake at 1 h ([2]; 60 min p.i., read-out: Spleen uptake) of 0.2 %ID/g. The tissue uptake at 1 h ([2]; 60 min p.i., read-out: Stomach uptake) was 0.3 ± 0.01 %ID/g.
